According to patent US7759510B2, “Platinum complexes and methods of use” (University of South Florida, priority 2003, dated 2010):
One block for each compound: values may come before it.

Assays:
A549 cells = assay: MTT assay, percent survival of A549 cells; type: cell-based; settings: A549
Protocol: 1. Prepare a suspension of A549 cells at 2×10^5 cells per mL in supplemented DMEM/F12 growth medium.
2. Plate 2×10^4 cells per well in a 96 well cell culture plate by adding 100 μL of stock suspension to each well.
3. For each platinum compound (already in solution), prepare a readily usable stock solution in DMEM/F12 medium.
4. For each compound generate triplicate trials of 0, 10, 20, 30, 40, 50, 60, and 70 μM concentration. This is achieved in situ by adding appropriate volumes of stock solution to each well along with the volume of untreated medium necessary to generate the desired concentration in a final volume of 200 μL.
5. Gently agitate plates to mix contents. Incubate at 37° C., 7% CO2 for 45 hours.
6. Add 20 μL of 5 mg/mL MTT solution (in PBS) to each well.
7. Gently agitate plates to mix contents and incubate an additional 3 hours to allow product development.
8. Remove plates from incubator and agitate to cause settling of formazan product.
9. Aspirate out liquid contents of each well using needle and syringe and discard.
10. Add 200 μL DMSO to each well to dissolve formazan product.
11. Agitate plates until all of the formazan product is in solution and no purple crystals remain on the bottom surface of the wells.
12. Read the absorbance of each well at […] using Varian software for Cary 50 UV-vis Spectrophotometer with fiber optic probe accessory.
(§1) MTT assays are used for the quantitative determination of cellular proliferation and activation and for the quantitation of in vitro tumor cell sensitivity to anti-cancer compounds. The assay is based on the cleavage of the yellow tetrazolium salt MTT into purple colored formazan by metabolically active cells. Solubilized formazan product can be photometrically quantitated using an ELISA plate reader. A decrease in the number of living cells results in a decrease in total metabolic activity which leads to a decrease in color formation. Platinum complexes of the present invention were tested in MTT assays using A549 cells to determine anti-cancer cell activity. […] FIGS. 1, 2, and 4 show percent survival versus platinum complex concentration in graphical form.
as §1, with “FIGS. 8, 9,” for “FIGS. 1, 2,”, “and 11” for “and 4”

Stat3 = target: T1, Stat3 (Mus musculus, UniProt P42227); assay: EMSA of nuclear extracts, Stat3 DNA-binding activity to hSIE probe; type: biochemical; settings: in vitro
T1 construct: Nuclear extracts were prepared from NIH3T3/hEGFR cell that overexpress human epidermal growth factor (EGF) receptor and stimulated with EGF; endogenous in cells; host or cells: NIH3T3/hEGFR fibroblasts, EGF-stimulated (6 ng/ml, 15 min), nuclear extract
T1 sequence (P42227 whole entry): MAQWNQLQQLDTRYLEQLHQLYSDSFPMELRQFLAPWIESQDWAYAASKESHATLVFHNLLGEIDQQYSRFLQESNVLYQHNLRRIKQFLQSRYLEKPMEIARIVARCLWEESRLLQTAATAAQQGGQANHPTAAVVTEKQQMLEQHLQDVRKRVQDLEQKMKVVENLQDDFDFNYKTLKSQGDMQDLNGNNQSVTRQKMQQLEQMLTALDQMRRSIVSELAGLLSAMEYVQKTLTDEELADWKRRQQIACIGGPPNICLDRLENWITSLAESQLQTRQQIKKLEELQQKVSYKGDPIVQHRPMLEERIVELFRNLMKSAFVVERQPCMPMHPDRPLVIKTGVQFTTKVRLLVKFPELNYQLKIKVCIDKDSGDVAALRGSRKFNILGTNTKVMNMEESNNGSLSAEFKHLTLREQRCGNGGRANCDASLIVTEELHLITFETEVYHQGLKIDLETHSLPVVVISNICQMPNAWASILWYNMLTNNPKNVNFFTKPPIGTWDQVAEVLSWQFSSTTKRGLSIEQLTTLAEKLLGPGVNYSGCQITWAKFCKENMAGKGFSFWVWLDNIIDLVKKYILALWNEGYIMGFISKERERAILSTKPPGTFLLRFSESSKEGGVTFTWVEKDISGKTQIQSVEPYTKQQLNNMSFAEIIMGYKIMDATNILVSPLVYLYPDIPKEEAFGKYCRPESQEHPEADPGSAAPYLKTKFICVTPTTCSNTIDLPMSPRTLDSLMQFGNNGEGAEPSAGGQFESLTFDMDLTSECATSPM
Protocol: Nuclear Extract Preparation and Analysis by EMSA of HK-Designated Platinum Complexes.
Nuclear extracts were prepared from NIH3T3/hEGFR cell that overexpress human epidermal growth factor (EGF) receptor and stimulated with EGF (6 ng/ml) for 15 min. Nuclear extracts were pre-incubated with compounds for 30 min at room temperature prior to incubation with radiolabeled probe. The ^32P-labeled oligonucleotide probe used is hSIE (high affinity sis-inducible element, m67 variant, 5′-[…]-3′) (SEQ ID NO:1) that binds both Stat1 and Stat3.
Other platinum (IV) complexes were evaluated for inhibitory activity against STAT DNA-binding in vitro.

Compound: Caffeine
Average Absorbance (A549 cells; Table 9, 10 μM): 0.4606
Percent Survival (A549 cells; Table 9, 10 μM): 72.24%
Average Absorbance (A549 cells; Table 9, 20 μM): 0.3935
Percent Survival (A549 cells; Table 9, 20 μM): 61.71%
Average Absorbance (A549 cells; Table 9, 30 μM): 0.2016
Percent Survival (A549 cells; Table 9, 30 μM): 31.62%
Average Absorbance (A549 cells; Table 9, 40 μM): 0.08893
Percent Survival (A549 cells; Table 9, 40 μM): 13.95%
Average Absorbance (A549 cells; Table 9, 50 μM): 0.04983
Percent Survival (A549 cells; Table 9, 50 μM): 7.815%
Average Absorbance (A549 cells; Table 9, 60 μM): 0.06103
Percent Survival (A549 cells; Table 9, 60 μM): 9.571%
Average Absorbance (A549 cells; Table 9, 70 μM): 0.05103
Percent Survival (A549 cells; Table 9, 70 μM): 8.003%

Compound: Methylene blue
Average Absorbance (A549 cells; Table 6, 10 μM): 2.3750
Percent Survival (A549 cells; Table 6, 10 μM): 100.5887%
Average Absorbance (A549 cells; Table 6, 20 μM): 2.2927
Percent Survival (A549 cells; Table 6, 20 μM): 97.1030%
Average Absorbance (A549 cells; Table 6, 30 μM): 2.2510
Percent Survival (A549 cells; Table 6, 30 μM): 95.3369%
Average Absorbance (A549 cells; Table 6, 40 μM): 1.5702
Percent Survival (A549 cells; Table 6, 40 μM): 66.5029%
Average Absorbance (A549 cells; Table 6, 50 μM): 0.8542
Percent Survival (A549 cells; Table 6, 50 μM): 36.1781%
Average Absorbance (A549 cells; Table 6, 60 μM): 1.1911
Percent Survival (A549 cells; Table 6, 60 μM): 50.4468%
Average Absorbance (A549 cells; Table 6, 70 μM): 0.9505
Percent Survival (A549 cells; Table 6, 70 μM): 40.2567%
IC50 (A549 cells; Table 7, linear trend from percent survival vs. concentration data, read-out: Calculated IC 50 (uM concentration)): 56.4 µM
Average Absorbance (A549 cells; Table 8, 10 μM): 2.5299
Percent Survival (A549 cells; Table 8, 10 μM): 103.5613%
Average Absorbance (A549 cells; Table 8, 20 μM): 2.1653
Percent Survival (A549 cells; Table 8, 20 μM): 88.6365%
Average Absorbance (A549 cells; Table 8, 30 μM): 1.6536
Percent Survival (A549 cells; Table 8, 30 μM): 67.6900%
Average Absorbance (A549 cells; Table 8, 40 μM): 0.7522
Percent Survival (A549 cells; Table 8, 40 μM): 30.7913%
Average Absorbance (A549 cells; Table 8, 50 μM): 0.6302
Percent Survival (A549 cells; Table 8, 50 μM): 25.7972%
Average Absorbance (A549 cells; Table 8, 60 μM): 0.7701
Percent Survival (A549 cells; Table 8, 60 μM): 31.5240%
Average Absorbance (A549 cells; Table 8, 70 μM): 0.7481
Percent Survival (A549 cells; Table 8, 70 μM): 30.6234%

Compound: Safranin
Average Absorbance (A549 cells; Table 9, 10 μM): 0.4933
Percent Survival (A549 cells; Table 9, 10 μM): 77.35%
Average Absorbance (A549 cells; Table 9, 20 μM): 0.4394
Percent Survival (A549 cells; Table 9, 20 μM): 68.9%
Average Absorbance (A549 cells; Table 9, 30 μM): 0.2197
Percent Survival (A549 cells; Table 9, 30 μM): 34.46%
Average Absorbance (A549 cells; Table 9, 40 μM): 0.07453
Percent Survival (A549 cells; Table 9, 40 μM): 11.69%
Average Absorbance (A549 cells; Table 9, 50 μM): 0.05293
Percent Survival (A549 cells; Table 9, 50 μM): 8.301%
Average Absorbance (A549 cells; Table 9, 60 μM): 0.0432
Percent Survival (A549 cells; Table 9, 60 μM): 6.775%
Average Absorbance (A549 cells; Table 9, 70 μM): 0.05447
Percent Survival (A549 cells; Table 9, 70 μM): 8.541%

Disruption of Stat3 activity / ability to bind its consensus binding sequence (Stat3): strongly disrupt Stat3 activity
Compound: [NH2][Pt]([NH2])([Cl])([Cl])([Br])[N+](=O)[O-] [CPA-10]

Compound: Cn1c(=O)c2[nH]cnc2n(C)c1=O [Theophylline]
Average Absorbance (A549 cells; Table 9, 10 μM): 0.5681
Percent Survival (A549 cells; Table 9, 10 μM): 89.1%
Average Absorbance (A549 cells; Table 9, 20 μM): 0.3864
Percent Survival (A549 cells; Table 9, 20 μM): 60.6%
Average Absorbance (A549 cells; Table 9, 30 μM): 0.2159
Percent Survival (A549 cells; Table 9, 30 μM): 33.86%
Average Absorbance (A549 cells; Table 9, 40 μM): 0.0585
Percent Survival (A549 cells; Table 9, 40 μM): 9.174%
Average Absorbance (A549 cells; Table 9, 50 μM): 0.0047
Percent Survival (A549 cells; Table 9, 50 μM): 0.7371%
Average Absorbance (A549 cells; Table 9, 60 μM): 0.03173
Percent Survival (A549 cells; Table 9, 60 μM): 4.976%
Average Absorbance (A549 cells; Table 9, 70 μM): −0.001567
Percent Survival (A549 cells; Table 9, 70 μM): −0.2457%
